# Experimental data reported in patent US11312713B2, “Imidazo[4,5-C]quinoline derivatives as LRRK2 inhibitors” (Pfizer Inc., priority 2017, dated 2022).
# Like-named read-outs stand apart in the source and are kept apart here.
# What was measured:
# mutant G2019S LRRK2 = mutant G2019S LRRK2 (Homo sapiens (Human), UniProt Q5S007, G2019S); test: LRRK2 kinase assay (LanthaScreen), G2019S mutant; assay type: biochemical; conditions: LanthaScreen, LRRKtide substrate
# In short: (§1)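 GST-tagged truncated enzyme (2 μg/mL) phosphorylates 100 nM fluorescein-LRRKtide with 1 mM ATP in HEPES pH 7.5, 3 mM MgCl2, DTT, Brij35; 30 min, room temperature, compound dose response top 3 μM. Stopped with EDTA; phospho-ERM detected by terbium anti-phospho-ERM TR-FRET; identical conditions for both enzymes.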
# [1] = target: LRRK2, WT (GST-tagged truncated LRRK2) (Homo sapiens, UniProt Q5S007); test: LRRK2 kinase assay (LanthaScreen), wild type; assay type: biochemical; conditions: LanthaScreen, LRRKtide substrate
# In short: as §1
# [2] = Human liver microsomes enzyme kinetics (metabolite formation); assay type: in vitro ADME
# Protocol: Human Liver Microsomes Enzyme Kinetics
# Incubations (in triplicate) contained 95A or 96 (1-1000 μM, final concentrations), pooled human liver microsomes (BD Biosciences, Bedford, Mass., 0.25 protein concentration, NADPH (1.3 mM), magnesium chrolide (5 mM) and potassium phosphate buffer (100 mM, pH 7.4). The final reaction volume (100 μL) contained 1 acetonitrile. The incubations were conducted at 37° C. At time points of 15 minutes for 95A, or 30 min for 96, 50 μL of incubate was quenched by the addition of 200 μL of cold acetonitrile containing 0.1% formic acid (v/v) and mass spectrometry (MS) internal standard. Quenched samples were vortexed for 1 minute followed by centrifugation at 3000 rpm for 5 minutes at room temperature (Allegra X-12R, Beckman Coulter, Fullerton, Calif.). The supernatant (150 μL) was placed into a clean injection sample block and dried down under nitrogen gas, then reconstituted with 150 μL of water containing 0.1% formic acid (v/v). The plates were capped and vortexed for 1 minute and subsequently analyzed using LC-MS/MS as described below. Formation of metabolites 95 (from substrate 95A) and 96B (from substrate 96) was quantitated using a standard curve (0.5-5000 nM) generated using a synthetic standard of substrate 95. Standard curve samples were prepared, processed, and analyzed as described above.
# (§2) Disappearance of substrates 95A and 96 and formation of metabolites 95 or 96B were determined using an LC-MS/MS system which is comprised of an AB Sciex 6500 triple quadrupole mass spectrometer equipped with an electrospray source (AB Sciex, Framingham, Mass.) and Agilent Technologies Infinity 1290 (Santa Clara, Calif.). A binary gradient was employed with a flow rate of 0.500 mL/min, using 0.1% formic acid in water as the aqueous mobile phase (solvent A) and 0.1% formic acid in acetonitrile (solvent B) as the organic phase. The LC gradient profile begins at 5% solvent B which was ramped to 98% B over 2 minutes and then held for 0.20 minutes and returned to initial conditions (5% B) over 0.5 minutes, for a total run time of 3.00 minutes. The analytical column used was a Phenomenex Kinetex 2.6 μm, 2.1×50 mm (Phenomenex, Torrance, Calif.), with an injection volume of 10 μL. The mass spectrometer was run under positive mode with the source temperature set to 500° C., ionization voltage set to 4.5 kV. The following MS/MS transitions were utilized: for substrate 95A (408→310), substrate 96 (411→313), metabolite 95 (424→326), and metabolite 96B (426→328). Analytes were quantified using Analyst software, version 1.6.2 or earlier (AB Sciex, Framingham, Mass.).
# [3] = Intrinsic clearance (CLint) in cynomolgus monkey liver microsomes; assay type: in vitro ADME; conditions: for microsomal CLint at 1 μM / half-life at 1 μM: monkey, liver microsomes, pH 7.4, monkey liver microsomes; for half-life at 1 μM: read-out: T½; for Rate of metabolite / intrinsic clearance in comparison to undeuterated form (95A) / rate of metabolite formation in comparison to undeuterated form (95A): monkey liver microsomes
# Protocol: Intrinsic Clearance (CLint) in Cynomolgus Monkey Liver Microsomes
# (§3) Incubations (in duplicate) contained either 95A or 96, or both 95A and 96 at final concentrations of 1 μM, pooled cynomolgus monkey liver microsomes (Xenotech, LLC, Lenexa, Kans., 0.25 μM CYP protein equivalent to 0.21 mg/mL protein concentration), NADPH (1.3 mM), magnesium chloride (3.3 mM) and potassium phosphate buffer (100 mM, pH 7.4). The final reaction volume (500 μL) contained 0.003% DMSO, 0.5% acetonitrile. The incubations were conducted at 37° C. and aliquots (50 μL) were removed at 0, 5, 10, 15, 20, 30, 45 and 60 minutes and quenched by addition to cold acetonitrile containing mass spectrometry (MS) internal standard (200 μL). Quenched incubations were vortexed for 1 minute followed by centrifugation at 3000 rpm for 5 minutes at room temperature (Allegra X-12R, Beckman Coulter, Fullerton, Calif.). The supernatant (150 μL) was then removed and added to a 96-deep well injection plate containing 150 μL of water with 0.1% formic acid (v/v). The plates were capped and vortexed for 1 minute and subsequently analyzed using LC-MS/MS as described below. Control incubations were prepared similar without adding the NADPH cofactor to monitor for any non-CYP/FMO metabolism. Discrete standard curves (0.5-2000 nM) were prepared, processed, and analyzed as described above.
# as §2
# [4] = Intrinsic clearance (CLint) in human liver microsomes; assay type: in vitro ADME; conditions: for microsomal CLint at 1 μM / half-life at 1 μM: human, liver microsomes, pH 7.4, human liver microsomes; for half-life at 1 μM: read-out: T½; for Rate of metabolite / intrinsic clearance in comparison to undeuterated form (95A) / rate of metabolite formation in comparison to undeuterated form (95A): human liver microsomes
# Protocol: Intrinsic Clearance (CLint) in Human Liver Microsomes
# as §3, with “The” for “Incubations (in duplicate) contained either 95A or 96, or both 95A and 96 at final concentrations of 1 μM, pooled cynomolgus monkey liver microsomes (Xenotech, LLC, Lenexa, Kans., 0.25 μM CYP protein equivalent to 0.21 mg/mL protein concentration), NADPH (1.3 mM), magnesium chloride (3.3 mM) and potassium phosphate buffer (100 mM, pH 7.4). The”, “vortex” for “vortexed”, “(v/v), the” for “(v/v). The”
# as §2
# [5] = G2019S mutant LRRK2, read-out: LRRK2, G2019S IC50
# [6] = formation of metabolite 95 (from 95A) or 96B (from 96), human liver microsomes
# [7] = combined substrates 95A and 96 - competition
# [8] = combined substrates (competition)
# [9] = individual substrates, metabolite 95 from 95A, 96B from 96
# mutant G2019S LRRK2, sequence (Q5S007 whole entry G2019S, the tested form may be a part): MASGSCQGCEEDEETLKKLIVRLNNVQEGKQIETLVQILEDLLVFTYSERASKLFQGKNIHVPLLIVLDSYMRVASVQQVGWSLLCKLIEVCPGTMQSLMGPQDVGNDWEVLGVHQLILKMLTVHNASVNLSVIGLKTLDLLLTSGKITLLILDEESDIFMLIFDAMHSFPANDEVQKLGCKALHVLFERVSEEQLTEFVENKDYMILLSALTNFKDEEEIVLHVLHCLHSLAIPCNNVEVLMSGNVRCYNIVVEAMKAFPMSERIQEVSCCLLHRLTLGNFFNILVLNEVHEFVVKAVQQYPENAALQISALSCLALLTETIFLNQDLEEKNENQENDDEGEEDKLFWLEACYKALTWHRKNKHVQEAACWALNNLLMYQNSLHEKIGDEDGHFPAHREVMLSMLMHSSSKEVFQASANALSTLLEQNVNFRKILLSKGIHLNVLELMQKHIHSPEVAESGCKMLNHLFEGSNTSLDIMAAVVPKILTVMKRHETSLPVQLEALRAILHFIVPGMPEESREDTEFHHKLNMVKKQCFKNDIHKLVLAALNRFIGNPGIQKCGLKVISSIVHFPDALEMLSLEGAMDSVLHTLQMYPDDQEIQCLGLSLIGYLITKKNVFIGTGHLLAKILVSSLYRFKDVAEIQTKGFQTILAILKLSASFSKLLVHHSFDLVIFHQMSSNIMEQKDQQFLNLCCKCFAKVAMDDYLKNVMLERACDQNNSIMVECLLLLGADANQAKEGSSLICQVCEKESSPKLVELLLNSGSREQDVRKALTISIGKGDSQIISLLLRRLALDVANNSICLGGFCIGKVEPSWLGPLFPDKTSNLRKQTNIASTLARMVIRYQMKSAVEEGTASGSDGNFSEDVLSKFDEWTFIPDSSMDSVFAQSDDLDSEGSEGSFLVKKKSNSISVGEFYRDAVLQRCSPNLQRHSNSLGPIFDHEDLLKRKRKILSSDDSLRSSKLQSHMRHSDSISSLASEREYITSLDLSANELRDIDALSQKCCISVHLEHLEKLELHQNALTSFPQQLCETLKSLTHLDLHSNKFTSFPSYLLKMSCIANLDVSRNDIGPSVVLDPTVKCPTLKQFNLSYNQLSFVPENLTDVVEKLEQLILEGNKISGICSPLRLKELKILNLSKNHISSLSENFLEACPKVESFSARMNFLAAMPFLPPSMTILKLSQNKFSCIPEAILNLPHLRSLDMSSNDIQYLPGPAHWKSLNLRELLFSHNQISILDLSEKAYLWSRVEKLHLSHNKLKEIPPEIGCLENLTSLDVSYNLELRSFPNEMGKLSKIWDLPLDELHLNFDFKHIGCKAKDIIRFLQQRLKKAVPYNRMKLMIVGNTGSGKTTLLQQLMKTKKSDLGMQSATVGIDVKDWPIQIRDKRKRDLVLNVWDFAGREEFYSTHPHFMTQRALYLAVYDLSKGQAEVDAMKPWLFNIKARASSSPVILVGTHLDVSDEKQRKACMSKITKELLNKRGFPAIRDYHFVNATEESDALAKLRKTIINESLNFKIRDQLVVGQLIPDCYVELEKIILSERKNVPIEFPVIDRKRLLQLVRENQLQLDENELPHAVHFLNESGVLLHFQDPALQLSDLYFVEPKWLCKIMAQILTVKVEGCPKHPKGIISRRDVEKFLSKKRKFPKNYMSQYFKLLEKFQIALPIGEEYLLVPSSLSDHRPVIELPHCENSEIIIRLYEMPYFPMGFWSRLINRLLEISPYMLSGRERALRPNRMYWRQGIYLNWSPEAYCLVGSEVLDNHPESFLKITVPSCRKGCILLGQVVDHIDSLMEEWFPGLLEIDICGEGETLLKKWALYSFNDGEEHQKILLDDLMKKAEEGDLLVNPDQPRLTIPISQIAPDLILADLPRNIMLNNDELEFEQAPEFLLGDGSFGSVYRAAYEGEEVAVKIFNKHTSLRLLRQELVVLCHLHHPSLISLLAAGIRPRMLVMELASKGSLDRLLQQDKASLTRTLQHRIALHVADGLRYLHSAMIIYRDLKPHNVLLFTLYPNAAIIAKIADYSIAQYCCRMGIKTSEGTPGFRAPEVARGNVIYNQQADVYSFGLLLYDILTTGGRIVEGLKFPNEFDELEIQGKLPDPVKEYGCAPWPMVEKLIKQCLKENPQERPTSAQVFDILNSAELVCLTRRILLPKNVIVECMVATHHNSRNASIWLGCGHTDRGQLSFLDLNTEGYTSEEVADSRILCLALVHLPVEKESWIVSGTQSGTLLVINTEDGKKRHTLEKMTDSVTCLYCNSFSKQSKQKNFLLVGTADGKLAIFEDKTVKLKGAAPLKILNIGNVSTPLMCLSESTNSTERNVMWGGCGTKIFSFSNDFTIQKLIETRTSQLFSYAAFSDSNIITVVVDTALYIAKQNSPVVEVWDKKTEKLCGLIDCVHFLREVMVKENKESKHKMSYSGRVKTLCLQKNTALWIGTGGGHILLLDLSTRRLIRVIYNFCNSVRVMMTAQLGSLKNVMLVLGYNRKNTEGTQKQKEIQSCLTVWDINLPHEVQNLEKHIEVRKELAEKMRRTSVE
smiles,measurement,setting,value
"Cc1cn(Cc2nc3cnc4ccc(C(F)F)cc4c3n2[C@@H]2CCO[C@H](C)C2)nn1 [Example 90, 8-(difluoromethyl)-1-[(2R,4R)-2-methyltetrahydro-2H-pyran-4-yl]-2-[(4-methyl-1H-1,2,3-triazol-1-yl)methyl]-1H-imidazo[4,5-c]quinoline]",IC50,mutant G2019S LRRK2; [5],7.32 nM
same,IC50,[1]; wild type LRRK2,14.7 nM
"Cc1cc(Cc2nc3cnc4ccc(C(F)F)cc4c3n2[C@@H]2CCO[C@H](C)C2)no1 [Example 91, 8-(difluoromethyl)-2-[(5-methyl-1,2-oxazol-3-yl)methyl]-1-[(2R,4R)-2-methyltetrahydro-2H-pyran-4-yl]-1H-imidazo[4,5-c]quinoline]",IC50,mutant G2019S LRRK2; [5],8.4 nM
same,IC50,[1]; wild type LRRK2,18 nM
"Cc1nnc(Cc2nc3cnc4ccc(Cl)cc4c3n2C2CCOCC2(F)F)s1 (stereo not drawn) [Example 92, 8-chloro-1-(3,3-difluorotetrahydro-2H-pyran-4-yl)-2-[(5-methyl-1,3,4-thiadiazol-2-yl)methyl]-1H-imidazo[4,5-c]quinoline]",IC50,mutant G2019S LRRK2; [5],6.91 nM
same,IC50,[1]; wild type LRRK2,10.9 nM
"FC1(F)COCCC1n1c(Cn2cncn2)nc2cnc3ccc(Cl)cc3c21 (stereo not drawn) [Example 93, 8-chloro-1-(3,3-difluorotetrahydro-2H-pyran-4-yl)-2-(1H-1,2,4-triazol-1-ylmethyl)-1H-imidazo[4,5-c]quinoline]",IC50,mutant G2019S LRRK2; [5],8.7 nM
same,IC50,[1]; 1 mM ATP,11 nM
same,IC50,[1]; wild type LRRK2,11.9 nM
"FC1(F)COCCC1n1c(Cn2cc(C3CC3)nn2)nc2cnc3ccc(Cl)cc3c21 (stereo not drawn) [Example 94, 8-chloro-2-[(4-cyclopropyl-1H-1,2,3-triazol-1-yl)methyl]-1-(3,3-difluorotetrahydro-2H-pyran-4-yl)-1H-imidazo[4,5-c]quinolone]",IC50,mutant G2019S LRRK2; [5],6.48 nM
same,IC50,[1]; wild type LRRK2,6.35 nM
"C[C@@H]1C[C@H](n2c(Cc3cnc(CO)cn3)nc3cnc4ccc(Cl)cc4c32)CCO1 [Example 95, [5-({8-chloro-1-[(2R,4R)-2-methyltetrahydro-2H-pyran-4-yl]-1H-imidazo[4,5-c]quinolin-2-yl}methyl)pyrazin-2-yl]methanol]",IC50,mutant G2019S LRRK2; [5],3.5 nM
same,IC50,[1]; wild type LRRK2,4.6 nM
"Cc1cnc(Cc2nc3cnc4ccc(Cl)cc4c3n2[C@@H]2CCO[C@H](C)C2)cn1 [Example 95A, 8-chloro-2-[(5-methylpyrazin-2-yl)methyl]-1-[(2R,4R)-2-methyltetrahydro-2H-pyran-4-yl]-1H-imidazo[4,5-c]quinoline]",Km,[2]; [6],15.2 µM
same,Vmax,[2]; [6],0.229 nmol/min/mg
same,microsomal CLint,"[2]; pH 7.4, formation of metabolite 95 (from 95A) or 96B (from 96), human liver microsomes",15.1 µL/min/mg
same,microsomal CLint at 1 μM,[3]; [7],193 µL/min/mg
same,half-life at 1 μM,[3]; [7],17.2 min
same,microsomal CLint at 1 μM,"[3]; individual substrates, 1 μM",215 µL/min/mg
same,half-life at 1 μM,"[3]; individual substrates, 1 μM",15.3 min
same,IC50,mutant G2019S LRRK2; [5],6.06 nM
same,microsomal CLint at 1 μM,[4]; [7],14 µL/min/mg
same,half-life at 1 μM,[4]; [7],65.9 min
same,microsomal CLint at 1 μM,"[4]; individual substrates, 1 μM",16 µL/min/mg
same,half-life at 1 μM,"[4]; individual substrates, 1 μM",54.4 min
"[2H]C([2H])([2H])c1cnc(Cc2nc3cnc4ccc(Cl)cc4c3n2[C@@H]2CCO[C@H](C)C2)cn1 [Example 96, 8-chloro-2-{[5-(^2H3)methylpyrazin-2-yl]methyl}-1-[(2R,4R)-2-methyltetrahydro-2H-pyran-4-yl]-1H-imidazo[4,5-c]quinoline]",intrinsic clearance in comparison to undeuterated form (95A),[2]; human liver microsomes enzyme kinetics,decreased intrinsic clearance
same,Rate of metabolite,[3]; [7],25.19 nmol/min/mg
same,intrinsic clearance in comparison to undeuterated form (95A),[3]; [8],decreased intrinsic clearance
same,rate of metabolite formation in comparison to undeuterated form (95A),[3]; [8],lower rate of metabolite formation
same,intrinsic clearance in comparison to undeuterated form (95A),[3]; individual substrates,decreased intrinsic clearance
same,rate of metabolite formation in comparison to undeuterated form (95A),[3]; individual substrates,lower rate of metabolite (96B) formation
same,Rate of metabolite,[3]; [9],22.83 nmol/min/mg
same,microsomal CLint at 1 μM,[3]; [7],110 µL/min/mg
same,half-life at 1 μM,[3]; [7],29.9 min
same,microsomal CLint at 1 μM,"[3]; individual substrates, 1 μM",151 µL/min/mg
same,half-life at 1 μM,"[3]; individual substrates, 1 μM",21.9 min
same,Rate of metabolite,[4]; [7],1.65 nmol/min/mg
same,intrinsic clearance in comparison to undeuterated form (95A),[4]; [8],decreased intrinsic clearance
same,rate of metabolite formation in comparison to undeuterated form (95A),[4]; [8],lower rate of metabolite formation
same,intrinsic clearance in comparison to undeuterated form (95A),[4]; individual substrates,decreased intrinsic clearance
same,rate of metabolite formation in comparison to undeuterated form (95A),[4]; individual substrates,lower rate of metabolite (96B) formation
same,Rate of metabolite,[4]; [9],1.10 nmol/min/mg
same,microsomal CLint at 1 μM,[4]; [7],6.86 µL/min/mg
same,half-life at 1 μM,[4]; [7],127 min
same,microsomal CLint at 1 μM,"[4]; individual substrates, 1 μM",6.68 µL/min/mg
same,half-life at 1 μM,"[4]; individual substrates, 1 μM",90.4 min
"Cc1cn(Cc2nc3cnc4ccc(Cl)cc4c3n2C2CCOCC2(F)F)nn1 (stereo not drawn) [enantiomer of Example 46, 8-chloro-1-(3,3-difluorotetrahydro-2H-pyran-4-yl)-2-[(4-methyl-1H-1,2,3-triazol-1-yl)methyl]-1H-imidazo[4,5-c]quinoline]",IC50,"mutant G2019S LRRK2; 1 mM ATP, read-out: LRRK2, G2019S mutant IC50",16.1 nM
same,IC50,[1]; 1 mM ATP,21.4 nM
